These results are taken from paper PMC6120236 (FEBS Open Bio, 2018).

Test [1] has as its target T1, WT ITK (His6-tagged human wild-type ITK kinase domain) (Homo sapiens, UniProt Q08881).
T1 construct: Ni-NTA, Q Sepharose, Superdex 200
T1 sequence (Q08881 357-620 limits assumed): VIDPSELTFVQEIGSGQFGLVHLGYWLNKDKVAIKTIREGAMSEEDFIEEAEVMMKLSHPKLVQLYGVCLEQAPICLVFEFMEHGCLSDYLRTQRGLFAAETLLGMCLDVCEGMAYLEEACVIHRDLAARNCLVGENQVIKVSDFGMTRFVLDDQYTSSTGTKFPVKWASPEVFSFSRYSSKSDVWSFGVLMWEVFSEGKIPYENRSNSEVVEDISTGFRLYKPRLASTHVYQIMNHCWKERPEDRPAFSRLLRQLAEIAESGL
The test can be described thus: biochemical kinase inhibition assay.

Test [2] concerns the target T1, WT ITK (His6-tagged human wild-type ITK kinase domain). The test can be described thus: SPR (Biacore, NTA capture coupling). Format: binding.
Another test addresses CLK1 (Homo sapiens, UniProt P49759). The test can be described thus: DiscoveRx KINOMEscan. The conditions noted are these: read-out: Percentage of control binding / J-31. An excerpt:
DiscoveRx KINOMEscan on CLK1

Another test concerns the target LCK (Homo sapiens, UniProt P06239). In words: DiscoveRx KINOMEscan. Particulars: read-out: Percentage of control binding / J-95. From the text:
DiscoveRx KINOMEscan on LCK

Another test addresses HCK (Homo sapiens, UniProt P08631). The test can be described thus: DiscoveRx KINOMEscan. The conditions noted are these: read-out: Percentage of control binding / J-95. From the text:
DiscoveRx KINOMEscan on HCK

The target of test [3] is T1, WT ITK (His6-tagged human wild-type ITK kinase domain). The test can be described thus: ADP-Glo kinase assay. In kind it is biochemical. From the text:
ADP-Glo kinase assay on WT ITK (His6-tagged human wild-type ITK kinase domain)

Where two headings read alike, the source gives them in different places.

Chain of CLK1 (P49759 whole entry): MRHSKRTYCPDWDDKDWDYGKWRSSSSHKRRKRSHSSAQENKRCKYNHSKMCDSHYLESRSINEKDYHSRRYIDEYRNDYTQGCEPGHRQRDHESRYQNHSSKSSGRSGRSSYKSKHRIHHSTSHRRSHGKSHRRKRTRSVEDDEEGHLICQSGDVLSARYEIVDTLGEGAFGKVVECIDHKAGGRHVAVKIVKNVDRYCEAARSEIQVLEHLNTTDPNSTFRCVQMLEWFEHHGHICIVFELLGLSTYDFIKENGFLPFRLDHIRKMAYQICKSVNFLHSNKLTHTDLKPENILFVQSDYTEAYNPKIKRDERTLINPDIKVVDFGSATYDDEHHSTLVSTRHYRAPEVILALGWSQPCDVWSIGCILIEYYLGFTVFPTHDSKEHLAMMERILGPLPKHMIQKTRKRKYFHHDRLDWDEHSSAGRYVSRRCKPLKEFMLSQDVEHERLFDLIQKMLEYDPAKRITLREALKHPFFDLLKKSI
Chain of HCK (P08631 2-526): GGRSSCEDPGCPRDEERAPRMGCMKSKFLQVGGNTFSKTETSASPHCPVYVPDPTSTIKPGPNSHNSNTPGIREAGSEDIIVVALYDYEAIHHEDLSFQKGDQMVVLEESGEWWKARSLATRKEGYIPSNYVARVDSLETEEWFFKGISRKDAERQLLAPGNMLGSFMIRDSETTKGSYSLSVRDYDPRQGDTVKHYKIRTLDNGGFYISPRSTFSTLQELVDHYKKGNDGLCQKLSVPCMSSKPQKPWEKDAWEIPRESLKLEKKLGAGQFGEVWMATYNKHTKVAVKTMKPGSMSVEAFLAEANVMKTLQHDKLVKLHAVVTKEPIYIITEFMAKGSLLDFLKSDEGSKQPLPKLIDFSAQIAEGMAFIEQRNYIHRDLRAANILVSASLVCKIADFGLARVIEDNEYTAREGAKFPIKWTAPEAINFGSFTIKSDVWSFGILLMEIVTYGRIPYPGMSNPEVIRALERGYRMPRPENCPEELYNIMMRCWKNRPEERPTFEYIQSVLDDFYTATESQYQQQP
Chain of LCK (P06239 2-509): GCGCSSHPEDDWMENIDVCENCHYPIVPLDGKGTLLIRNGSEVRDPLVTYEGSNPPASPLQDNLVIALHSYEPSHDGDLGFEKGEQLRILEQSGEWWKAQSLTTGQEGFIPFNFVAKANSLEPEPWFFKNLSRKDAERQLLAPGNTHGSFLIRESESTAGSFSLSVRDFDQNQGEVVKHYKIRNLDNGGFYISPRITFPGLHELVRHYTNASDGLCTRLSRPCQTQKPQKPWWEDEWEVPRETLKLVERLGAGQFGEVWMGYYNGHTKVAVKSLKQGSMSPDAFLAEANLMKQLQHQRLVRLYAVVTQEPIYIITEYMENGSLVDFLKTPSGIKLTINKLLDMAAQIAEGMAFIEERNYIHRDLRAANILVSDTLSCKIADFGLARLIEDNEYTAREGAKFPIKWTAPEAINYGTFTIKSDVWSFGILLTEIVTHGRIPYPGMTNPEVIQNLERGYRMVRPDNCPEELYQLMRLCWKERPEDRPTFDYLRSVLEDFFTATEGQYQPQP

As for `COc1ccc(OCCn2c(NC(=O)c3ccco3)nc3ccccc32)cc1` [J-31], in test [1], the IC50 stood at 5.5 µM. In test [2], this compound had a Kd of 3400 nM. Moreover, the remaining binding at 50 µM at CLK1 is 21%.

For the compound `CCOC(=O)/C=C1\CC(=O)Nc2cc(C)c(C)cc2N1` [J-95], the remaining binding at 20 µM on LCK is 29%; on HCK, 33%. 3.3 µM corresponded to half-maximal inhibition in test [1] (IC50). In test [2], this compound came in with a Kd of 1000 nM.

Turning to `CC(C)Oc1ccc2cccc(-n3cc(NC(N)=O)c(C(N)=O)n3)c2c1` [C, Pfizer compound 9], the IC50 in test [3] turned out to be 24 nM. Also, in test [2] (read-out: K D), the Kd was found to be 25 nM.

On to `COc1cc(C)c(Sc2cnc(NC(C)=O)s2)cc1C(=O)N1CCN(C(C)=O)CC1` [B, Derivative of A], for which the IC50 in test [3] is 260 nM. The Kd in test [2] (read-out: K D) was 75 nM.

Regarding `COc1cc(C)c(Sc2cnc(NC(=O)c3ccc(CNC(C)C(C)(C)C)cc3)s2)cc1C(=O)N1CCN(C(C)=O)CC1` (centres unmarked) [A, BMS-509744], inhibition in test [3] was half-maximal at 2.5 nM (IC50). Moreover, the Kd in test [2] (read-out: K D) stood at 1.3 nM.

In turn, `CC(=O)N1CCCC(n2nc(-c3cccc(C(=O)Nc4ccc(C(C)C)cc4)c3)c3c(N)ncnc32)C1` (centres unmarked) [E, Derivative of D] returned an IC50 in test [3] of 460 nM. Further, the Kd in test [2] (read-out: K D) came out at 1100 nM.

The compound `CCc1ccc2nc(Nc3cc(Cc4ccccc4)nc(N[C@H]4CC[C@H](O)CC4)n3)sc2c1` [G, GSK compound 13] returned an IC50 in test [3] of 3.5 nM. Also, in test [2] (read-out: K D), the Kd amounted to 3.6 nM.
